Source: US20200268864A1, “CANCER VACCINE COMPOSITIONS AND METHODS FOR USING SAME TO TREAT CANCER” (Dana-Farber Cancer Institute, Inc., priority 2017, published 2020)
“Also recorded” adds a separate entry of the source.

Tests used:
[1] = test system: PBM tumor-bearing mice; assay: Flow cytometry of tumor-infiltrating immune cells in PBM tumors; conditions: mouse, in vivo
Experimental: (§1) Tumors were first mechanically disrupted by chopping, then chemically digested in collagenase buffer (8 mL DMEM, 0.1 mL 1M HEPES, 0.5 mL FBS, 0.2 mL Pen/Strep, 1 m, 10× collagenase/hyaluronidase (Stemcell Technologies), 0.2 mL of 1 mg/mL DNase I (Stemcell Technologies) at 37° C. for 45 min. Single-cell suspensions of spleen and lymph nodes were obtained by mashed through a 70 um strainer using the plunger of a 3 mL or 5 mL syringe. Single cells suspensions were treated with red blood lysis buffer (4 mL NH4Cl+1 mL PBS with 2% calf serum) and washed with FACS buffer. Single cells suspensions were incubated with LIVE/DEAD Fixable Aqua Dead Cell Stain (Life Technologies, Cat # L34965) for 30 min and then blocked with anti-CD16/32 (BioLegend, clone 93) for 20 min on ice. Samples were then incubated with appropriate antibodies for 30 min. on ice. The Foxp3 staining buffer set (eBioscience, Cat #00-5523-00) was applied for intracellular markers staining. For the intracellular cytokine analysis, cells were stimulated with Leukocyte Activation Cocktail (BD Biosciences, Cat #550583) at 37° C. for 5 hours prior to FACS staining. The following antibodies were used in the experiments and were purchased from BioLegend unless otherwise indicated: CD45 (clone 30-F11), TCRβ (clone H57-597), CD4 (clone RM4-5), CD8 (clone 53-6.7), CD44 (clone IM7), CD62L (MEL-14), CD25 (PC61), IFNγ (clone XMG1.2), TNFα(clone MP6-XT22), PD-1 (clone 29F.1A12), Tim-3 (clone RMT3-23), LAG-3 (clone C9B7W), CD11b (clone M1/70), CD11c (clone […]), F4/80 (clone BM8), Gr-1 (clone RB6-BC5), Ly-6C (clone HK1.4), Ly-6G (clone 1A8), MHCII (clone M5/114.15.2), CD80 (clone 16-10A1), CD86 (clone GL-1), MHC1 (clone KH114). FoxP3 (clone FJK-16 s; eBioscience), Phospho-IRF-3 (Ser396) (clone D6O1M, Cell signaling technology), Phospho-TBK1/NAK (Ser172) (clone D52C2, Cell signaling technology), and LIVE/DEAD® Fixable Aqua Dead Cell Stain Kit (Life Technologies Cat L34965). Flow cytometry was performed on an LSR II (BD Biosciences) or LSRFortessa™ HTS (BD Biosciences) at the DFCI flow cytometry core facility, and all the data were analyzed using FlowJo software.

[2] = test system: STING pathway in BMDCs co-cultured with PBM cells; assay: Co-culture of BMDCs with olaparib-treated PBM tumor cells; type: cell-based, mouse
Experimental: Blood was obtained by retro-orbital sampling at intermediate time points or experimental end points. Blood cells and plasma/sera were separated by centrifugation at 1,500×g for 5 min. at 4° C. Plasmaisera were sent out to Eve Technologies for cytokine array analysis (Chemokine Array 31-Plex and Mouse Procarta IFN 2-plex Featured Assay). Plasma/sera were applied to ELISA according to manufacturer's instructions. For in vitro experiments, cell culture supernatants were obtained by centrifugation at 1,500×g for 5 min. at 4° C. to remove all debris and cells, and were then subjected to ELISA analysis. IFN-β was detected using the LEGEND MAX™ Mouse IFN-β ELISA Kit (BioLegend).
Bone marrow cells were isolated from FVB/NJ mice and cultured in RPMI-1640 containing 10% FBS and 20 ng/ml GM-CSF. BMDCs (bone marrow derived dendritic cells) were harvested for in vitro co-culture assay on day 7 to day 10. About 3×10^5 PBM or PPM tumor cells were cultured in a 6-well plate for 24 hr. and then treated with DMSO or olaparib. After 24 hr incubation with DMSO, olaparib, or olaparib in combination with other drugs (cell cycle inhibitor or apoptosis inhibitor), drugs were removed and tumor cells were washed twice with PBS. BMDCs were added and co-cultured with PBM or PPM cells at a ratio of 1:1 in 1.5 ml culture media in the presence of GM-CSF (20 ng/ml) and lipofectamine (2 μl) for 24 hr. Co-cultured cells were harvested for flow cytometry analysis and floating cells (percentage of BMDCs is about 90%), or RNA analysis. Cell culture supernatants were collected for detection of IFN-β with the ELISA kit. BMDCs generated from C57BL/6J mice were applied for the coculture of BMDCs with ID8 tumor cells. Human dendritic cells purchased from Lonza were used for the coculture of human DCs with DMSO or olaparib-treated human ovarian cancer cells ([…] and UWB1.289+BRCA1).
About 50 to 100 mg of tumor samples were homogenized in 1 ml of TRIzol™ Reagent supplied with 200 μl of stainless steel beads and 0.2 ml of chloroform was added to the samples. Samples were vortexed vigorously for 15 seconds and then incubated at room temperature for 2 to 3 minutes. After centrifugation at 12,000×g for 15 minutes at 4° C., upper aqueous phase of the samples was carefully removed to a new tube and the total RNA was purified using an RNeasy® Mini Kit (Qiagen) according to manufactory's instruction. For the in vitro cultured cell samples, total RNA was isolated using an RNeasy® Mini Kit. The qPCR was performed on an Applied Biosystems 7300 machine after the total RNA was reverse transcribed to cDNA using the SuperScript® III First-Strand Synthesis System (Invitrogen). Primers used for qPCR were as follows: […]

[3] = test system: STING pathway in PBM tumors; assay: STING pathway activation in PBM tumors (p-TBK1/p-IRF3 flow cytometry, IFN-β/CXCL10 RT-qPCR); type: in vivo, mouse; conditions: for phosphorylation of TBK1 and IRF3 in intratumoral DCs and macrophages: PBM tumors
Experimental: as §1, with “FoxP3 (clone FJK-16 s; eBioscience), Phospho-IRF-3 (Ser396) (clone D6O1M, Cell signaling technology), Phospho-TBK1/NAK (Ser172) (clone D52C2, Cell signaling technology), and LIVE/DEAD® Fixable Aqua Dead Cell Stain Kit (Life Technologies Cat L34965).” left out, “software. […]” for “software.”

[4] = test system: PBM tumor-bearing mice; assay: Flow cytometry of peripheral blood and splenic immune cells; conditions: mouse, in vivo
Experimental: as §1

O=C(c1cc(Cc2n[nH]c(=O)c3ccccc23)ccc1F)N1CCN(C(=O)C2CC2)CC1 [olaparib, Olaparib]
CD80, CD86 and MHC class II expression on tumor associated DCs [1]: increased levels
CD103+ DCs at the tumor site [1]: increased
IFNγ and TNFα production by intratumoral CD4+ and CD8+ T cells [1]: significantly increased the production
PD-1/TIM-3 and PD-1/Lag3 co-expression (exhausted state) on intratumoral CD8+ T cells [1]: reduced expression; also recorded: reduced the exhausted state
effector CD8+ T cells in malignant ascites of the peritoneal cavity [1]: Increase
frequency of intratumoral FoxP3+ Treg [1]: not changed
immune cell (CD45+) infiltration into tumor [1]: Increased
intratumoral MDSC cells (CD11b+Gr1+; gMDSC) [1]: reduced
number of intratumoral CD4+ and CD8+ T cells [1]: significantly increased; also recorded: increased the number
intratumoral MDSC cells (CD11b+Gr1+; gMDSC) ([1]; listed as Olaparib): decrease
phosphorylation of TBK1 and IRF3 (p-TBK1+p-IRF3+) in BMDCs ([2]; co-cultured with olaparib-treated PBM cells vs DMSO): increased phosphorylation
IFN-β and CXCL10 expression in BMDCs ([2]; co-cultured with olaparib-treated vs non-treated/DMSO PBM cells, mRNA and protein): Significantly enhanced expression; also recorded: markedly increased expression
phosphorylation of TBK1 and IRF3 in intratumoral DCs and macrophages [3]: increased pTBK1+p-IRF3+
phosphorylation of TBK1 and IRF3 in intratumoral DCs and macrophages ([3]; listed as Olaparib): increased phosphorylation
IFN-β and CXCL10 expression in PBM tumor tissues ([3]; RT-qPCR): induction; also recorded: Increased expression
IFN gamma and TNF alpha production by peripheral blood CD8+ T cells [4]: enhanced
expression of PD-1, Tim3, and Lag3 co-inhibitory receptors on splenic CD8+ T cells [4]: reduced
gMDSC and mMDSC in the peripheral blood [4]: decreased
number of CD8+ T cells in the spleens [4]: significantly increased
number of MDSCs in the spleens [4]: significantly reduced
